Assay results reported in patent US20150105252A1, “SUBSTITUTED PYRAZOLES AS HERBICIDES” (E I DU PONT DE NEMOURS AND COMPANY, priority 2013, published 2015).

Assays:
quackgrass = assay: Test E preemergence; format: in vivo, Elytrigia repens; details: 21 days, scale 0 to 100
Text: (§1) Seeds of plant species selected from bermudagrass (Cynodon dactylon), Surinam grass (Brachiaria decumbens), crabgrass, large (large crabgrass, Digitaria sanguinalis), crabgrass, naked (naked crabgrass, Digitaria nuda), foxtail, green (green foxtail, Setaria viridis), johnsongrass (Sorghum halepense), kochia (Kochia scoparia), morningglory (pitted morningglory, Ipomoea lacunosa), nutsedge, purple (purple nutsedge, Cyperus rotundus), ragweed (common ragweed, Ambrosia elation), mustard, black (black mustard, Brassica nigra), guineagrass (Panicum maximum), dallisgrass (Paspalum dilatatum), barnyardgrass (Echinochloa crus-galli), sandbur (southern sandbur, Cenchrus echinatus), sowthistle (common sowthistle, Sonchus oleraceous), ryegrass, Italian (Italian ryegrass, Lolium multiflorum), signalgrass (broadleaf signalgrass, Brachiaria platyphylla), dayflower, VA (Virginia (VA) dayflower, Commelina virginica), bluegrass (annual bluegrass, Poa annua), quackgrass (Elytrigia repens), mallow (common mallow, Malva sylvestris), buckwheat, wild (wild buckwheat, Polygonum convolvulus), leafy spurge (Euphorbia esula), common chickweed (Stellaria media), wild poinsettia (Euphorbia heterophylla), pigweed, palmer (palmer pigweed, Amaranthus palmeri), and pigweed (redroot pigweed, Amaranthus retroflexus) were planted into a blend of loam soil and sand and treated preemergence with test chemicals formulated in a non-phytotoxic solvent mixture which included a surfactant.
(§2) Treated plants and controls were maintained in a greenhouse for 21 days, after which time all species were compared to controls and visually evaluated. Plant response ratings, summarized in Table E, are based on a scale of 0 to 100 where 0 is no effect and 100 is complete control. A dash (-) response means no test result.

Surinam grass = assay: Test E preemergence; format: in vivo, Brachiaria decumbens; details: 21 days, scale 0 to 100
Text: as §1, §2

ryegrass, Italian = assay: Test E preemergence; format: in vivo, Lolium multiflorum; details: 21 days, scale 0 to 100
Text: as §1, §2

pigweed = assay: Test E preemergence; format: in vivo, Amaranthus retroflexus; details: 21 days, scale 0 to 100
Text: as §1, §2

wild poinsettia [1] = assay: Test E preemergence; format: in vivo, Euphorbia heterophylla; details: 21 days, scale 0 to 100
Text: as §1, §2

buckwheat, wild = assay: Test E preemergence; format: in vivo, Polygonum convolvulus; details: 21 days, scale 0 to 100
Text: as §1, §2

barnyardgrass = assay: Test C flooded paddy test; format: in vivo, Echinochloa crus-galli; details: Flood
Method in brief: (§3)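 In-water treatment: compound dosed into 3 cm flood over soil, water level unchanged throughout. Controls run alongside; visual assessment at day 13–15.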

rice = assay: Test C flooded paddy test; format: in vivo, Oryza sativa; details: Flood
Method in brief: as §3

field bindweed = assay: Test F postemergence; format: in vivo, Convolvulus arvensis; details: scale 0 to 100
Text: (§4) Seeds of plant species selected from corn (Zea mays), soybean (Glycine max), velvetleaf (Abutilon theophrasti), lambsquarters (Chenopodium album), wild poinsettia (Euphorbia heterophylla), pigweed, palmer (palmer pigweed, Amaranthus palmeri), common waterhemp (Amaranthus rudis), surinam grass (Brachiaria decumbens), large crabgrass (Digitaria sanguinalis), crabgrass, Brazil (Brazilian crabgrass, Digitaria horizontalis), fall panicum (Panicum dichotomiflorum), giant foxtail (Setaria faberii), green foxtail (Setaria viridis), goosegrass (Eleusine indica), johnsongrass (Sorghum halepense), common ragweed (Ambrosia elation), barnyardgrass (Echinochloa crus-galli), southern sandbur (Cenchrus echinatus), arrowleaf sida (Sida rhombifolia), Italian ryegrass (Lolium multiflorum), dayflower, VA (Virginia (VA) dayflower, Commelina virginica), field bindweed (Convolvulus arvensis), cocklebur (common cocklebur, Xanthium strumarium), morningglory (Ipomoea coccinea), nightshade (eastern black nightshade, Solanum ptycanthum), kochia (Kochia scoparia), yellow nutsedge (Cyperus esculentus), and hairy beggarticks (Bidens pilosa), were planted into a silt loam soil and treated preemergence with test chemicals formulated in a non-phytotoxic solvent mixture which included a surfactant.
(§5) At the same time, plants from these crop and weed species and also horseweed (Canada horseweed, Conyza canadensis), smartweed (ladysthumb smartweed, Polygonum persicaria), waterhemp_RES1, (ALS & Triazine resistant common waterhemp, Amaranthus rudis), and waterhemp_RES2, (ALS & HPPD resistant common waterhemp, Amaranthus rudis) were treated with postemergence applications of test chemicals formulated in the same manner. Plants ranged in height from 2 to 18 cm for postemergence treatments (1- to 4-leaf stage). Treated plants and controls were maintained in a greenhouse for 14 to 21 days, after which time all species were compared to controls and visually evaluated. Plant response ratings, summarized in Table F, are based on a scale of 0 to 100 where 0 is no effect and 100 is complete control. A dash (-) response means no test result.

arrowleaf sida = assay: Test F postemergence; format: in vivo, Sida rhombifolia; details: scale 0 to 100
Text: as §4, §5

Italian ryegrass = assay: Test F postemergence; format: in vivo, Lolium multiflorum; details: scale 0 to 100
Text: as §4, §5

wild poinsettia [2] = assay: Test F postemergence; format: in vivo, Euphorbia heterophylla; details: scale 0 to 100
Text: as §4, §5

[3] = 31 g ai/ha, scale 0 to 100 (0 no effect, 100 complete control)
[4] = 62 g ai/ha, scale 0 to 100 (0 no effect, 100 complete control)
[5] = 125 g ai/ha, scale 0 to 100 (0 no effect, 100 complete control)

Compound: CCc1cc(C(=O)NC(C)C)nn1Cc1ccnc(C(F)(F)F)c1 [Compound 103]
- Plant response rating, Quackgrass (quackgrass; 16 g ai/ha): 95
- Plant response rating, Quackgrass (quackgrass; 31 g ai/ha): 98
- Plant response rating, Quackgrass (quackgrass; 62 g ai/ha): 100
- Plant response rating, Quackgrass (quackgrass; 125 g ai/ha): 100
- Plant response rating, Quackgrass (quackgrass; 250 g ai/ha): 100
- Plant response rating, Surinam Grass (Surinam grass; 16 g ai/ha): 95
- Plant response rating, Surinam Grass (Surinam grass; 31 g ai/ha): 100
- Plant response rating, Surinam Grass (Surinam grass; 62 g ai/ha): 100
- Plant response rating, Surinam Grass (Surinam grass; 125 g ai/ha): 100
- Plant response rating, Surinam Grass (Surinam grass; 250 g ai/ha): 100
- Plant response rating, Ryegrass, Italian (ryegrass, Italian; 16 g ai/ha): 50
- Plant response rating, Ryegrass, Italian (ryegrass, Italian; 31 g ai/ha): 98
- Plant response rating, Ryegrass, Italian (ryegrass, Italian; 62 g ai/ha): 100
- Plant response rating, Ryegrass, Italian (ryegrass, Italian; 125 g ai/ha): 100
- Plant response rating, Ryegrass, Italian (ryegrass, Italian; 250 g ai/ha): 100
- Plant response rating, Pigweed (pigweed; 16 g ai/ha): 100
- Plant response rating, Pigweed (pigweed; 31 g ai/ha): 100
- Plant response rating, Pigweed (pigweed; 62 g ai/ha): 100
- Plant response rating, Pigweed (pigweed; 125 g ai/ha): 100
- Plant response rating, Pigweed (pigweed; 250 g ai/ha): 100
- Plant response rating, Wild Poinsettia (wild poinsettia [1]; 16 g ai/ha): 80
- Plant response rating, Wild Poinsettia (wild poinsettia [1]; 31 g ai/ha): 95
- Plant response rating, Wild Poinsettia (wild poinsettia [1]; 62 g ai/ha): 100
- Plant response rating, Wild Poinsettia (wild poinsettia [1]; 125 g ai/ha): 100
- Plant response rating, Wild Poinsettia (wild poinsettia [1]; 250 g ai/ha): 100
- Plant response rating, Buckwheat, Wild (buckwheat, wild; 16 g ai/ha): 95
- Plant response rating, Buckwheat, Wild (buckwheat, wild; 31 g ai/ha): 100
- Plant response rating, Buckwheat, Wild (buckwheat, wild; 62 g ai/ha): 100
- Plant response rating, Buckwheat, Wild (buckwheat, wild; 125 g ai/ha): 100
- Plant response rating, Buckwheat, Wild (buckwheat, wild; 250 g ai/ha): 100

Compound: CCCNC(=O)c1cc(CCCl)n(Cc2ccnc(C(F)(F)F)c2)n1 [Compound 145]
- Plant response rating, Barnyardgrass (barnyardgrass; [3]): 0
- Plant response rating, Barnyardgrass (barnyardgrass; [4]): 0
- Plant response rating, Barnyardgrass (barnyardgrass; 125 g ai/ha, scale 0 to 100): 30
- Plant response rating, Barnyardgrass (barnyardgrass; 250 g ai/ha, scale 0 to 100): 40
- Plant response rating, Rice (rice; [3]): 0
- Plant response rating, Rice (rice; [4]): 20
- Plant response rating, Rice (rice; 125 g ai/ha, scale 0 to 100): 25
- Plant response rating, Rice (rice; 250 g ai/ha, scale 0 to 100): 40

Compound: CCOc1cc(C(=O)NC(C)C)nn1Cc1ccnc(C(F)(F)F)c1 [Compound 188]
- Plant response rating, Field Bindweed (field bindweed; Postemergence, 31 g ai/ha): 70
- Plant response rating, Field Bindweed (field bindweed; Postemergence, 125 g ai/ha): 90
- Plant response rating, Field Bindweed (field bindweed; Postemergence, 250 g ai/ha): 95
- Plant response rating, Field Bindweed (field bindweed; postemergence, 62 g ai/ha): 70
- Plant response rating, Field Bindweed (field bindweed; postemergence, 500 g ai/ha): 95
- Plant response rating, Arrowleaf Sida (arrowleaf sida; Postemergence, 31 g ai/ha): 50
- Plant response rating, Arrowleaf Sida (arrowleaf sida; Postemergence, 125 g ai/ha): 60
- Plant response rating, Arrowleaf Sida (arrowleaf sida; Postemergence, 250 g ai/ha): 70
- Plant response rating, Arrowleaf Sida (arrowleaf sida; postemergence, 62 g ai/ha): 50
- Plant response rating, Arrowleaf Sida (arrowleaf sida; postemergence, 500 g ai/ha): 80
- Plant response rating, Italian Ryegrass (Italian ryegrass; Postemergence, 31 g ai/ha): 5
- Plant response rating, Italian Ryegrass (Italian ryegrass; Postemergence, 125 g ai/ha): 30
- Plant response rating, Italian Ryegrass (Italian ryegrass; Postemergence, 250 g ai/ha): 60
- Plant response rating, Italian Ryegrass (Italian ryegrass; postemergence, 62 g ai/ha): 10
- Plant response rating, Italian Ryegrass (Italian ryegrass; postemergence, 500 g ai/ha): 85
- Plant response rating, Wild Poinsettia (wild poinsettia [2]; Postemergence, 31 g ai/ha): 60
- Plant response rating, Wild Poinsettia (wild poinsettia [2]; Postemergence, 125 g ai/ha): 60
- Plant response rating, Wild Poinsettia (wild poinsettia [2]; Postemergence, 250 g ai/ha): 80
- Plant response rating, Wild Poinsettia (wild poinsettia [2]; postemergence, 62 g ai/ha): 70
- Plant response rating, Wild Poinsettia (wild poinsettia [2]; postemergence, 500 g ai/ha): 85

Compound: CCOc1cc(C(=O)NC2CC2)nn1Cc1ccnc(C(F)(F)F)c1 [Compound 189]
- Plant response rating, Quackgrass (quackgrass; 4 g ai/ha): 0
- Plant response rating, Quackgrass (quackgrass; 8 g ai/ha): 0
- Plant response rating, Quackgrass (quackgrass; 16 g ai/ha): 35
- Plant response rating, Quackgrass (quackgrass; 31 g ai/ha): 75
- Plant response rating, Quackgrass (quackgrass; 62 g ai/ha): 100
- Plant response rating, Surinam Grass (Surinam grass; 4 g ai/ha): 0
- Plant response rating, Surinam Grass (Surinam grass; 8 g ai/ha): 0
- Plant response rating, Surinam Grass (Surinam grass; 16 g ai/ha): 25
- Plant response rating, Surinam Grass (Surinam grass; 31 g ai/ha): 80
- Plant response rating, Surinam Grass (Surinam grass; 62 g ai/ha): 100
- Plant response rating, Ryegrass, Italian (ryegrass, Italian; 4 g ai/ha): 0
- Plant response rating, Ryegrass, Italian (ryegrass, Italian; 8 g ai/ha): 0
- Plant response rating, Ryegrass, Italian (ryegrass, Italian; 16 g ai/ha): 20
- Plant response rating, Ryegrass, Italian (ryegrass, Italian; 31 g ai/ha): 50
- Plant response rating, Ryegrass, Italian (ryegrass, Italian; 62 g ai/ha): 100
- Plant response rating, Pigweed (pigweed; 4 g ai/ha): 60
- Plant response rating, Pigweed (pigweed; 8 g ai/ha): 60
- Plant response rating, Pigweed (pigweed; 16 g ai/ha): 100
- Plant response rating, Pigweed (pigweed; 31 g ai/ha): 100
- Plant response rating, Pigweed (pigweed; 62 g ai/ha): 100
- Plant response rating, Wild Poinsettia (wild poinsettia [1]; 4 g ai/ha): 10
- Plant response rating, Wild Poinsettia (wild poinsettia [1]; 8 g ai/ha): 25
- Plant response rating, Wild Poinsettia (wild poinsettia [1]; 16 g ai/ha): 65
- Plant response rating, Wild Poinsettia (wild poinsettia [1]; 31 g ai/ha): 95
- Plant response rating, Wild Poinsettia (wild poinsettia [1]; 62 g ai/ha): 100
- Plant response rating, Buckwheat, Wild (buckwheat, wild; 4 g ai/ha): 70
- Plant response rating, Buckwheat, Wild (buckwheat, wild; 8 g ai/ha): 100
- Plant response rating, Buckwheat, Wild (buckwheat, wild; 16 g ai/ha): 100
- Plant response rating, Buckwheat, Wild (buckwheat, wild; 31 g ai/ha): 100
- Plant response rating, Buckwheat, Wild (buckwheat, wild; 62 g ai/ha): 100

Compound: CCONC(=O)c1cc(OCC)n(Cc2ccnc(C(F)(F)F)c2)n1 [Compound 195]
- Plant response rating, Barnyardgrass (barnyardgrass; [3]): 0
- Plant response rating, Barnyardgrass (barnyardgrass; [4]): 30
- Plant response rating, Barnyardgrass (barnyardgrass; [5]): 40
- Plant response rating, Barnyardgrass (barnyardgrass; 250 g ai/ha, scale 0 to 100): 45
- Plant response rating, Rice (rice; [3]): 0
- Plant response rating, Rice (rice; [4]): 0
- Plant response rating, Rice (rice; [5]): 0
- Plant response rating, Rice (rice; 250 g ai/ha, scale 0 to 100): 20

Compound: CCc1cc(C(=O)NC2CC2)nn1Cc1ccnc(OCC(F)(F)F)c1 [Compound 200]
- Plant response rating, Barnyardgrass (barnyardgrass; [3]): 0
- Plant response rating, Barnyardgrass (barnyardgrass; [4]): 0
- Plant response rating, Barnyardgrass (barnyardgrass; [5]): 20
- Plant response rating, Barnyardgrass (barnyardgrass; 250 g ai/ha, scale 0 to 100): 40
- Plant response rating, Rice (rice; [3]): 0
- Plant response rating, Rice (rice; [4]): 0
- Plant response rating, Rice (rice; [5]): 15
- Plant response rating, Rice (rice; 250 g ai/ha, scale 0 to 100): 20

Compound: CCc1cc(C(=O)NC2CC2)nn1Cc1cc(C(F)(F)C(F)(F)F)nn1C [Compound 226]
- Plant response rating, Barnyardgrass (barnyardgrass; [3]): 0
- Plant response rating, Barnyardgrass (barnyardgrass; [4]): 0
- Plant response rating, Barnyardgrass (barnyardgrass; [5]): 0
- Plant response rating, Rice (rice; [3]): 0
- Plant response rating, Rice (rice; [4]): 0
- Plant response rating, Rice (rice; [5]): 0
